# In patent publication US5308843A, “Method of inhibiting mammalian topoisomerase II and malignant cell growth in mammals, with substituted (S)-3-methyl-7-oxo-2,3-dihydro-7H-pyrido[1,2,3-de][1,4 ]-benzoxazine(and-benzothiazine)-6-carboxylic acids” (Sterling Drug Inc., priority 1990, dated 1994):
# Experiments:
# Set-up in all cases: species or system mice
# [1] = In vivo antitumor assay, mammary ductal adenocarcinoma No. 16/C (SC); conditions: mouse, in vivo; Mam16/C (SC); drug SC; QD1-4; read-out: Maximum Tolerated Total Dose
# Excerpt: (§1) In vivo Antitumor Assay Procedure
# (§2) Mice: Inbred: C3H/He; and Hybrids: B6D2F1 (C57BL/6 females×DBA/2 males), CD2F1 (Balb/c females×DBA/2 males) and B6C3F1 (C57BL/6×C3H) were bred at Wayne State University from strains obtained from the Frederick Cancer Research Facility, Frederick, Md. or from commercial suppliers.
# (§3) Tumors: Murine Tumors: P388 leukemia and the following transplantable solid tumors of mice were used for in vivo testing: B16 melanoma, pancreatic ductal adenocarcinoma No. 03, colon adenocarcinoma No. 38 and mammary ductal adenocarcinoma No. 16/C. All tumors are in the Developmental Therapeutics Program frozen tumor repository, maintained by the Biological Testing Branch, Frederick, Md. Each has a detailed description, code identification number, and list of references at the National Tumor Repository. Tumors were maintained in the mouse strain of origin and were transplanted in the appropriate F1 hybrid (or the strain of origin) for therapy trials. The mice were supplied food and water ad libitum.
# (§4) Chemotherapy: For pancreatic ductal adenocarcinoma No. 03, colon adenocarcinoma No. 38, and mammary ductal adenocarcinoma No. 16, the following methods were used to help ensure a more uniform tumor burden per mouse (thus reducing the requirement for greater numbers of mice per group), bilateral tumor implants were used. The animals necessary to begin an experiment were pooled, implanted bilaterally s.c. on day zero with 30-60-mg tumor fragments using a 12-gauge trocar, and again pooled before randomization to the various treatment and control groups. Chemotherapy was started within three days after tumor implantation while the number of cells per mouse was relatively small (1×10^7 -1×10^8 cells).
# (§5) End Points for Assessing Antitumor Activity: Quantitative end points used to assess antitumor activity included % Increased Life Span (% ILS), Tumor Cell Kill (Log10 kill), and Tumor Growth Inhibition (T/C). Long Term Survivors (45 or 60 day) were excluded from calculations of % ILS and Tumor Cell Kill.
# (§6) Endpoints were calculated as follows: [formula] where Dt is the median day of death for treated and Dc is the median day of death for control groups.
# (§7) T/C Value: Tumors were measured with a caliper once or twice weekly (as needed) until either tumors exceeded 1600 mg or cure was assured. Tumor weights were estimated from two-dimensional measurements: Tumor Weight (mg)=(a×b^2)/2, where a and b are the tumor length and width (mm), respectively. Measurements were carried out simultaneously in both the treatment and control groups. When the control group tumors reached approximately 750-1500 mg in size (median of group), the median tumor weight of each group was determined (including zeros). The T/C value in percent is an indication of antitumor effectiveness. […]. […]
# [2] = test system: mammary ductal adenocarcinoma No. 16/C; assay: as above
# Excerpt: as §1, §2, §3, §4, §5, §6, §7
# [3] = test system: pancreatic ductal adenocarcinoma No. 03; assay: In vivo antitumor assay, pancreatic ductal adenocarcinoma No. 03 (Panc03, SC)
# Excerpt: as §1, §2, §3, §4, §5, §6, §7
smiles,measurement,setting,value
"Cc1cc(-c2c(F)cc3c(=O)c(C(=O)O)cn4c3c2SC[C@@H]4C)cc(C)n1 [Example 5, (S)-10-(2,6-Dimethyl-4-pyridinyl)-9-fluoro-3-methyl-7-oxo-2,3-dihydro-7H-pyrido[1,2,3-de][1,4]benzothiazine-6-carboxylic acid]",MTD,[1],263 mg/kg
same,Long Term Survivors,"[2]; Mam16/C (SC), drug SC, QD1-4, 263 mg/kg total",0/5
same,% T/C,"[2]; Mam16/C (SC), drug SC, QD1-4, at maximum tolerated total dose 263 mg/kg",15%
same,antitumor activity (in words),[2]; Mammary Adenocarcinoma No. 16/C,clearly active
same,Long Term Survivors,"[3]; Panc03 (SC), drug SC, QD3-9, 781 mg/kg total",0/5
same,% T/C,"[3]; Panc03 (SC), drug SC, QD3-9, at maximum tolerated total dose 781 mg/kg",17%
same,antitumor activity (in words),[3]; Pancreatic Ductal Adenocarcinoma 03,clearly active
